According to patent US4711958A, “Morpholine containing amino acid derivatives” (priority 1986, dated 1987):

Legend:
[1] = target: T1, renin (Homo sapiens, UniProt P00797); experiment: Renin inhibitory effect in a human high renin plasma; type: biochemical; set-up: 500 μl of human high renin plasma; from tissue; host or cells: human high renin plasma; conditions: pH 7.0, 37° C., 60 minutes, read-out: IC50 (molar concentration producing a 50% inhibition)
T1 sequence (P00797 67-406): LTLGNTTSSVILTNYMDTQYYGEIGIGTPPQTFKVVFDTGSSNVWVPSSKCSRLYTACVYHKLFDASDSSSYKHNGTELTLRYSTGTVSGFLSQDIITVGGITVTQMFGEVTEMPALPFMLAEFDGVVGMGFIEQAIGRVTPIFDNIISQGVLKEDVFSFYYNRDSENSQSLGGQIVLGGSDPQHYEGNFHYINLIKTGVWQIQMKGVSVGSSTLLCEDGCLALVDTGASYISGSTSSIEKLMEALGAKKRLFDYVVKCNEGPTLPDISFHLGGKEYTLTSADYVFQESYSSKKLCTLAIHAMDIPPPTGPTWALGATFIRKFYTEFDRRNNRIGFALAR
Description: Renin inhibitory effect in a human high renin plasma
A mixture of 350 μl of a 0.5 M phosphate buffer (pH 7.0) containing 14 mM EDTA.2Na and a 0.3% neomycin sulfate, 50 μl of a 20 mM L-phenylalanyl-L-alanyl-L-proline as an angiotensin converting enzyme inhibitor and 100 μl of dimethyl sulfoxide solution containing an amino acid derivative of the present invention was added to 500 μl of human high renin plasma. Two hundred μl of the mixture was placed on an ice bath, at 4° C., and remaining mixture (800 μl ) was incubated for 60 minutes at 37° C. on a water bath. Two hundred μl of the incubated remaining mixture was chilled immediately on an ice bath, and the amount (A) of angiotensin I produced was determined by radioimmunoassay using renin riabead kit (DAINABOT).
The amount (B) of angiotensin I in the mixture placed on an ice bath at 4° C. was also determined by radioimmunoassay.
As a control, the same procedure as above was carried out by using 100 μl of dimethyl sulfoxide alone in place of 100 μl of dimethyl sulfoxide solution containing an amino acid compound of the present invention.
The net amount was estimated as the difference between A and B.
The inhibitory effect was calculated by the following equation. [formula]

[2] = tested on: plasma renin; experiment: Renin inhibitory effect in plasma on common marmoset (high renin state, oral); type: in vivo; conditions: oral 30 mg/kg
Description: Renin inhibitory effect in plasma on common marmoset
The experiment was carried out by using common marmoset as described in K. G. Hofbauer et al., Clinical and Experimental hypertension, Vol. A5, Nos. 7 & 8 (1983), pages 1237-1247.
Furosemide was administered orally three times to common marmoset having a lower salt diet at 15 mg per Kilogram per day every other day to create a high renin state. The experiment was carried out on the third day after the last furosemide dose.
Conscious female and male marmosets weighing 335 to 375 g were placed into small restraining chair, and by using a catheter into the femoral artery, blood collecting was carried out at intervals of 20, 40, 60, 120, 180 and 300 minutes.
Collected blood samples were centrifuged at 1200 g for 15 minutes at 4° C. Two hundred μl of the plasma was taken up and incubated for 60 minutes at 37° C., and the plasma renin activity was measured by radioimmunoassay using renin riabead kit (DAINABOT).
Compound A of this invention was dissolved in dilute hydrochloric acid, and administered orally at single dose of 30 mg/kg using catheter.

[3] = target: T1, renin; experiment: Inhibitory effect on human renin-sheep renin substrate reaction system in vitro; type: biochemical; conditions: pH 7.4, 37° C., 15 minutes, read-out: IC50 (molar concentration producing a 50% inhibition)
Description: Inhibitory effect on human renin-sheep renin substrate reaction system in vitro
The mixture was incubated for 15 minutes on a water bath at 37° C., and the reaction mixture was allowed to stand for 5 minutes on a water bath at 100° C. to stop the reaction. After cooling, 200 μl of the solution was taken up and the amount of angiotensin I produced by the addition of renin was determined by radioimmunoassay using renin riabead kit (DAINABOT).
The inhibitory effect was calculated by the following equation.
As a control, the same procedure as above was carried out by using 50 μl of dimethyl sulfoxide alone in place of the 50 μl of dimethyl sulfoxide solution containing an amino acid compound of the present invention. [formula]

[4] = Hypotensive effect in marmoset (high renin state, oral); type: in vivo, common marmoset; conditions: conscious male marmoset, oral 30 mg/kg, tail cuff, Control 89.3
Description: Hypotensive effect in marmoset
The experiment was carried out by using common marmoset as described in K. G. Hofbauer et al., Clinical and Experimental Hypertension, Vol. A5, Nos. 7 & 8 (1983), pages 1237-1247.
Furosemide was administered orally three times to common marmoset at 15 mg per kilogram per day every other day to create a high renin state. Blood pressure of conscious marmoset was measured on the third day after the last furosemide dose.
A conscious male marmoset weighing 460 g was placed into small restraining chair. Blood pressure was measured on the tail cuff method using pretismograph. Compound C was dissolved in dilute hydrochloric acid, and administered orally at 30 mg/kg by using a catheter.

| Compound | IC50 [1] | IC50 [3] | other results |
| --- | --- | --- | --- |
| CC(C)CNC(=O)C(O)[C@H](CC1CCCCC1)NC(=O)[C@H](Cc1c[nH]cn1)NC(=O)C(CC(=O)N1CCOCC1)Cc1cccc2ccccc12 (mixture of isomers) [Compound B, (2RS, 3S)-3-{N-[2-(1-Naphthylmethyl)-3-(morpholinocarbonyl)propionyl]-L-histidyl}amino-4-cyclohexyl-2-hydroxy-N-isobutylbutyramide] | 260 nM | 290 nM |  |
| O=C(N[C@@H](Cc1c[nH]cn1)C(=O)N[C@@H](CC1CCCCC1)C(O)C(=O)OC1CCCCC1)C(CC(=O)N1CCOCC1)Cc1cccc2ccccc12 (mixture of isomers) [Compound E, (2RS, 3S)-3-{N-[2-(1-Naphthylmethyl)-3-(morpholinocarbonyl)propionyl]-L-histidyl}amino-4-cyclohexyl-2-hydroxybutyric acid cyclohexyl ester] | 30 nM | 6.6 nM |  |
| O=C(N[C@@H](Cc1c[nH]cn1)C(=O)N[C@@H](CC1CCCCC1)C(O)C(=O)N1CCOCC1)C(CC(=O)N1CCOCC1)Cc1cccc2ccccc12 (mixture of isomers) [Compound F, 4-[(2RS, 3S)-3-{N-[2-(1-Naphthylmethyl)-3-(morpholinocarbonyl)propionyl]-L-histidyl}amino-4-cyclohexyl-2-hydroxybutyryl]morpholine] | 130 nM | 370 nM |  |

Stronger by IC50 [1], values ahead:

| IC50 [1] | IC50 [3] | Compound | other results |
| --- | --- | --- | --- |
| 10 nM | 6.5 nM | CC(C)OC(=O)C(O)[C@H](CC1CCCCC1)NC(=O)[C@H](Cc1c[nH]cn1)NC(=O)C(CC(=O)N1CCOCC1)Cc1cccc2ccccc12 (mixture of isomers) [Compound A, (2RS, 3S)-3-{N-[2-(1-Naphthylmethyl)-3-(morpholinocarbonyl)propionyl]-L-histidyl)amino-4-cyclohexyl-2-hydroxybutyric acid isopropyl ester] | Inhibition percent of plasma renin activity ([2]; 20 minutes after administration, 3 animals): 68.2%; Inhibition percent of plasma renin activity ([2]; 40 minutes after administration, 3 animals): 88.1%; Inhibition percent of plasma renin activity ([2]; 60 minutes after administration, 3 animals): 87.1%; Inhibition percent of plasma renin activity ([2]; 120 minutes after administration, 3 animals): 88.8%; Inhibition percent of plasma renin activity ([2]; 180 minutes after administration, 3 animals): 79.6%; Inhibition percent of plasma renin activity ([2]; 300 minutes after administration, 2 animals): 53.4% |
| 6.8 nM | 2.5 nM | O=C(N[C@@H](Cc1c[nH]cn1)C(=O)N[C@@H](CC1CCCCC1)C(O)C(=O)OC1CCCC1)C(CC(=O)N1CCOCC1)Cc1cccc2ccccc12 (mixture of isomers) [Compound C, (2RS, 3S)-3-{N-[2-(1-Naphthylmethyl)-3-(morpholinocarbonyl)propionyl]-L-histidyl)amino-4-cyclohexyl-2-hydroxybutyric acid cyclopentyl ester] | Blood pressure ([4]; 0.5 hours after administration): 78.0 mmHg; Blood pressure ([4]; 1 hour after administration): 73.3 mmHg; Blood pressure ([4]; 2 hours after administration): 66.0 mmHg; Blood pressure ([4]; 3 hours after administration): 71.0 mmHg; Blood pressure ([4]; 5 hours after administration): 71.8 mmHg; Blood pressure ([4]; 7 hours after administration): 71.7 mmHg |
| 4.1 nM | 2.9 nM | O=C(N[C@@H](Cc1c[nH]cn1)C(=O)N[C@@H](CC1CCCCC1)C(O)C(=O)OC(CF)CF)C(CC(=O)N1CCOCC1)Cc1cccc2ccccc12 (mixture of isomers) [Compound G, (2RS, 3S)-3-{N-[2-(1-Naphthylmethyl)-3-(morpholinocarbonyl)propionyl]-L-histidyl}amino-4-cyclohexyl-2-hydroxybutyric acid 1,3-difluoro-2-propyl ester] |  |
| 4.7 nM | 2.4 nM | CC(C)OC(=O)[C@H](O)[C@H](CC1CCCCC1)NC(=O)[C@H](Cc1c[nH]cn1)NC(=O)C(CC(=O)N1CCOCC1)Cc1cccc2ccccc12 (stereo partly drawn) [Compound D, (2R, 3S)-3-{N-[2-(1-Naphthylmethyl)-3-(morpholinocarbonyl)propionyl]-L-histidyl}amino-4-cyclohexyl-2-hydroxybutyric acid isopropyl ester] |  |
